Measurements reported in patent US20180155757A1, “IDENTIFICATION OF BACTERIA THAT ARE RESISTANT TO CARBAPENEMS BY MEMBRANE IMPERVIOUSNESS” (BIOMÉRIEUX, priority 2015, published 2018).

What was measured:
Format in all cases: cell-based
[1] = test system: Enterobacter aerogenes EA 27; assay: MIC of PMBN, microdilution in liquid medium
Experimental: (§1) Likewise, prior to carrying out the discriminating method according to the invention, the PMBN-sensitivity of each of the model strains used was evaluated by means of a method of microdilution in liquid medium.
(§2) To do this, each of the strains was cultured in Mueller-Hinton broth (MHII-Becton Dickinson®, United States). On inocula containing 2×10^5 CFU/ml, serial doubling dilutions were carried out for the PMBN in order to determine the minimum inhibitory concentrations. The PMBN-sensitivity was read after 18 hours of incubation at 37° C., by addition of 0.2 mg/ml of iodonitrotetrazolium chloride (Sigma-Aldrich®, United States).

C. freundii 0403012 = assay: MIC of PMBN
Experimental: as §1, §2

C. freundii 1204047 = assay: MIC of PMBN
Experimental: as §1, §2

E. aerogenes 1204048 = assay: MIC of PMBN
Experimental: as §1, §2

E. aerogenes 9203076 = assay: MIC of PMBN
Experimental: as §1, §2

E. aerogenes 9306071 = assay: MIC of PMBN
Experimental: as §1, §2

[2] = test system: E. cloacae 0901026 (KPC-2 producer); assay: MIC of PMBN
Experimental: as §1, §2

[3] = test system: E. cloacae 1008073 (VIM-1 producer); assay: MIC of PMBN
Experimental: as §1, §2

[4] = test system: E. cloacae 1008079 (IMP-1 producer); assay: MIC of PMBN
Experimental: as §1, §2

[5] = test system: E. cloacae 1008096 (VIM-1 producer); assay: MIC of PMBN
Experimental: as §1, §2

[6] = test system: E. cloacae 1101172 (NDM producer); assay: MIC of PMBN
Experimental: as §1, §2

E. cloacae 9304026 = assay: MIC of PMBN
Experimental: as §1, §2

E. cloacae 9402034 = assay: MIC of PMBN
Experimental: as §1, §2

[7] = test system: E. coli 0506040 (VIM-1 producer); assay: MIC of PMBN
Experimental: as §1, §2

[8] = test system: E. coli 1008077 (VIM-1 producer); assay: MIC of PMBN
Experimental: as §1, §2

[9] = test system: E. coli 1012292 (KPC-2 producer); assay: MIC of PMBN
Experimental: as §1, §2

E. coli 1204043 = assay: MIC of PMBN
Experimental: as §1, §2

[10] = test system: K. pneumoniae 0404024 (VIM-1 producer); assay: MIC of PMBN
Experimental: as §1, §2

[11] = test system: K. pneumoniae 0901027 (KPC-3 producer); assay: MIC of PMBN
Experimental: as §1, §2

K. pneumoniae 1002015 = assay: MIC of PMBN
Experimental: as §1, §2

[12] = test system: K. pneumoniae 1012335 (OXA-48 producer); assay: MIC of PMBN
Experimental: as §1, §2

[13] = test system: K. pneumoniae 1104053 (OXA-48 producer); assay: MIC of PMBN
Experimental: as §1, §2

[14] = test system: K. pneumoniae 1108001 (KPC-2 producer); assay: MIC of PMBN
Experimental: as §1, §2

[15] = test system: K. pneumoniae 1108002 (KPC-3 producer); assay: MIC of PMBN
Experimental: as §1, §2

[16] = test system: K. pneumoniae 1108007 (VIM-1 producer); assay: MIC of PMBN
Experimental: as §1, §2

K. pneumoniae 1204034 = assay: MIC of PMBN
Experimental: as §1, §2

[17] = test system: S. marcescens 1008175 (IMP-1 producer); assay: MIC of PMBN
Experimental: as §1, §2

Substance: polymyxin B nonapeptide [PMBN]
- MICPMBN [1]: MICPMBN = 1024 μg/ml
- MICPMBN (C. freundii 0403012): MICPMBN = 256 μg/ml
- MICPMBN (C. freundii 1204047): MICPMBN = 1024 μg/ml
- MICPMBN (E. aerogenes 1204048): MICPMBN >1024 μg/ml
- MICPMBN (E. aerogenes 9203076): MICPMBN = 1024 μg/ml
- MICPMBN (E. aerogenes 9306071): MICPMBN = 1024 μg/ml
- MICPMBN [2]: MICPMBN = 1024 μg/ml
- MICPMBN [3]: MICPMBN = 1024 μg/ml
- MICPMBN [4]: MICPMBN >1024 μg/ml
- MICPMBN [5]: MICPMBN = 1024 μg/ml
- MICPMBN [6]: MICPMBN = 1024 μg/ml
- MICPMBN (E. cloacae 9304026): MICPMBN >1024 μg/ml
- MICPMBN (E. cloacae 9402034): MICPMBN >1024 μg/ml
- MICPMBN [7]: MICPMBN = 128 μg/ml
- MICPMBN [8]: MICPMBN = 1024 μg/ml
- MICPMBN [9]: MICPMBN = 1024 μg/ml
- MICPMBN (E. coli 1204043): MICPMBN = 512 μg/ml
- MICPMBN [10]: MICPMBN >1024 μg/ml
- MICPMBN [11]: MICPMBN >1024 μg/ml
- MICPMBN (K. pneumoniae 1002015): MICPMBN = 1024 μg/ml
- MICPMBN [12]: MICPMBN = 1024 μg/ml
- MICPMBN [13]: MICPMBN = 1024 μg/ml
- MICPMBN [14]: MICPMBN = 1024 μg/ml
- MICPMBN [15]: MICPMBN >1024 μg/ml
- MICPMBN [16]: MICPMBN = 1024 μg/ml
- MICPMBN (K. pneumoniae 1204034): MICPMBN = 256 ng/ml
- MICPMBN [17]: MICPMBN = 1024 μg/ml
